From US20050054620A1, “Paricalcitol as a chemotherapeutic agent” (priority 2003, published 2005)

Columns and labels:
[1] = test system: HT-29 cells; assay: Western blot of cell lysates; type: cell-based, human; conditions: 10^−7M, 72 hrs
Experimental: Western blot analysis was used to determine the levels of proteins involved in cell cycle and differentiation. […] After centrifugation at 15,000×g for 15 min at 4° C., the suspension was collected. Protein concentrations were quantitated using the Bio-Rad assay (Bio-Rad Labolatories, Hercules, Calif.). […] The blots were developed using the Supersignal West Pico Chemiluminescent Substrate Kit (Pierce, Rockford, Ill.). In FIG. 4B, HT-29 cells were exposed to either paricalcitol (10^−7M) or 1,25(OH)2D3(10^−7M). Cell lysates were prepared after 72 hrs of culture and analyzed by Western blot. The Western blot was probed sequentially with antibodies for p27KIP1, p21WAF1, cyclin D1, c-myc and E-Cadherin (antibodies from Santa Cruz Biotechnology) as described in Example II. Control cells were treated with vehicle alone. The quantity of protein was normalized by comparison to the amount of GAPDH. In FIG. 4C, HT-29 and SW837 cells were cultured with either paricalcitol (10^−7M) or 1,25(OH)2D3 (10^−7M) for 72 hrs. Cell lysates were prepared and analyzed by Western blot which was probed sequentially with antibodies to COX-1 and COX-2 (Santa Cruz Biotechnology). Control cells were treated with vehicle alone. The amount of protein was normalized by comparison to the quantity of GAPDH.

[2] = test system: SW837 cells; assay: Western blot of cell lysates; type: cell-based, human; conditions: 10^−7M, 72 hrs
Experimental: Western blot analysis was used to determine the levels of proteins involved in cell cycle and differentiation. […] After centrifugation at 15,000×g for 15 min at 4° C., the suspension was collected. Protein concentrations were quantitated using the Bio-Rad assay (Bio-Rad Labolatories, Hercules, Calif.). […] The blots were developed using the Supersignal West Pico Chemiluminescent Substrate Kit (Pierce, Rockford, Ill.). In FIG. 4C, HT-29 and SW837 cells were cultured with either paricalcitol (10^−7M) or 1,25(OH)2D3 (10^−7M) for 72 hrs. Cell lysates were prepared and analyzed by Western blot which was probed sequentially with antibodies to COX-1 and COX-2 (Santa Cruz Biotechnology). Control cells were treated with vehicle alone. The amount of protein was normalized by comparison to the quantity of GAPDH.

[3] = humans, cited from earlier work
[4] = test system: NCI-H929 cells; assay: Cell cycle analysis by flow cytometry; type: cell-based, human; conditions: 10^−7M, 72 hrs
Experimental: For cell cycle analysis, cells were exposed to 10^−7M 1,25(OH)2D3, 10^−7M paricalcitol or vehicle control for either 3 or 4 days. Total cells, both in suspension and adherent, were collected, washed, suspended in cold PBS. Then cells were fixed in 75% chilled methanol and stained with propidium iodine. Cell cycle status was analyzed on a Becton Dickinson Flow Cytometer.
HCI-H929 cells were cultured with either paricalcitol (10^−7M) or 1,25(OH)2D3 (10^−7M) for 72 hrs, harvested and stained with propidium iodine (PI). Control cells were treated with vehicle alone.

[5] = test system: NCI-H929 cells; assay: Western blot of cell lysates; type: cell-based, human; conditions: 10^−7M
Experimental: Western blot analysis was used to determine the levels of proteins involved in cell cycle and differentiation. […] After centrifugation at 15,000×g for 15 min at 4° C., the suspension was collected. Protein concentrations were quantitated using the Bio-Rad assay (Bio-Rad Labolatories, Hercules, Calif.). […] The blots were developed using the Supersignal West Pico Chemiluminescent Substrate Kit (Pierce, Rockford, Ill.). In FIG. 3C, NCI-H929 cells were treated with either paricalcitol (10^−7M) or 1,25(OH)2D3 (10^−7M) and cell lysates were prepared after 72 hrs. Cell lysates were used for Western blot analysis and probed sequentially with antibodies to p27KIP1, Bcl-2 and Bax. Control cells were treated with vehicle alone. Amount of protein was normalized by comparison to the amount of GAPDH. […] The Bcl-2 and Bax antibodies were obtained from Santa Cruz Biotechnology Inc., Santa Cruz, Calif.

[6] = test system: NCI-H929 cells; assay: TUNEL assay of apoptosis; type: cell-based, human; conditions: 10^−7M, 96 hrs, diluant control 4%
Experimental: In FIG. […] Results represent the mean±SD of three independent experiments. A TUNEL assay was performed for immunohistochemical detection and quantification of programmed cell death at the single cell level, based on labeling of DNA strand breaks using the In Situ Cell Death Detection, POD (Roche, Indianapolis, Ind.). Early apoptosis was also detected by measuring annexin V protein in the cell membrane using Annexin V-FITC Kit (CLONTECH, Palo Alto, Calif.) followed by flow cytometric analysis.

[7] = test system: HL-60 cells; assay: CD14 expression by flow cytometry; type: cell-based, human
Experimental: In order to measure cell surface CD14 antigen on HL-60 cells, promyelocytic leukemia cell line, HL-60, was treated with either 1,25(OH)2D3 or paricalcitol (10^−7M) for 4 days and examined for CD14 expression by flow cytometry using CD14 antibody (DAKO, Carpinteria, Calif.), as described previously (Hisatake et al., supra, 2001). Murine IgG1 antibody (DAKO) was used as a control.
Measurement of cell surface CD14 antigen on HL-60 cells by flow cytometry using CD14 antibody (DAKO, Carpinteria, Calif.), was determined as described previously (Hisatake et al. Blood 97:2427-2433 (2001)). Murine IgG1 antibody (DAKO) was used as a control.

[8] = test system: NB-4 cells; assay: Western blot of cell lysates; type: cell-based, human; conditions: 10^−7 M, 72 hrs
Experimental: (§1) Western blot analysis was used to determine the levels of proteins involved in cell cycle and differentiation. For western blot analysis, cells were washed twice in PBS, suspended in lysis buffer [50 mM Tris (pH 8.0), 150 mM NaCl, 0.1% SDS, 0.5% sodium deoxycholate, 1% NP40, […] phenylmethylsulfonyl fluoride, […] aprotinin, […] pepstatin, and […] leupetin] and placed on ice for 30 min. After centrifugation at 15,000×g for 15 min at 4° C., the suspension was collected. Protein concentrations were quantitated using the Bio-Rad assay (Bio-Rad Labolatories, Hercules, Calif.). Whole lysates ([…]) were resolved by 4-15% SDS polyacrylamide gel, transferred to an immobilon polyvinylidene difuride membrane (Amersham Corp., Arlington Heights, Ill.), and probed sequentially with a number of antibodies (p21WAF1, p27KIP1, PTEN, and GAPDH, Santa Cruz Biotechnology Inc., Santa Cruz, Calif.). The blots were developed using the Supersignal West Pico Chemiluminescent Substrate Kit (Pierce, Rockford, Ill.).
(§2) Western blot analysis was performed as follows: cells were washed twice in PBS, suspended in lysis buffer (50 mM Tris at pH 8.0, 150 mM NaCl, 0.1% SDS, 0.5% sodium deoxycholate, 1% Nonidet P-40, phenylmethylsulfonyl fluoride at 100 μg/mL, aprotinin at 2 μg/mL, pepstatin at 1 μg/mL, and leupetin at 10 μg/mL), and placed on ice for 30 minutes. After centrifugation at 15,000×g for 15 minutes at 4° C., the suspension was collected. Protein concentrations were quantitated by using the Bio-Rad protein Assay Dye Reagent Concentrate (Bio-Rad Laboratories, Hercules, Calif.) according to the manufacture's recommendation. Whole cell lysates (40 μg) were resolved by SDS-polyacrylamide gel electrophoresis in a 4%-15% gel, transferred to a polyvinylidene difuride membrane (Immobilon, Amersham Corp., Arlington Heights, Ill.), and probed sequentially with antibodies against the following proteins: VDR, RXR, CEBPβ, Rb, Bcl-2, Bcl-XL, Bax, p-ERK, RARA, GAPDH (Santa Cruz Biotechnology Inc., Santa Cruz, CA). The blots were developed using the Supersignal West Pico Chemiluminescent Substrate Kit (Pierce, Rockford, Ill.).

[9] = test system: HL-60 cells; assay: Western blot of cell lysates; type: cell-based, human
Experimental: as §1, §2

SMILES: C=C1/C(=C\C=C2/CCC[C@]3(C)[C@@H]([C@H](C)CCCC(C)(C)O)CC[C@@H]23)C[C@@H](O)C[C@@H]1O [1,25(OH)2D3]
- decrease of COX-2 expression [1]: 50%
- decrease of c-myc expression [1]: ~40%
- decrease of cyclin D1 expression [1]: about 50%
- effect on COX-1 expression [1]: suppressed COX-2 but not COX-1 expression
- increase of E-cadherin [1]: about 6 fold
- decrease of COX-2 expression [2]: 50%
- effect on COX-1 expression [2]: suppressed COX-2 but not COX-1 expression
- serum half-life ([3]; paricalcitol compared with 1,25(OH)2D3): similar
- peak serum levels ([3]; typical dose 0.5 to 1.0 mg/every other day): 40 to 60 pg/mL
- increase of accumulation in G1/G0 phase [4]: 7%
- increase in apoptotic sub-G1 population ([4]; diluant control 4% sub-G1): 16%
- decrease of Bcl-2 protein level ([5]; 72 hrs): about 40%
- effect on levels of Bax ([5]; 72 hrs): did not affect
- effect on levels of p21WAF1 ([5]; 96 hrs): little effect
- increase of p27KIP1 expression ([5]; 96 hrs): about 3 fold
- apoptotic cells (TUNEL) [6]: 20%
- cells induced to express CD14 ([7]; 10^−7M, 96 hrs): 54%
- PTEN expression (in words) [8]: induced PTEN expression
- induction of p21WAF1 ([9]; 10^−7M, 72 hr): approximately 7 fold
- induction of p27KIP1 ([9]; 10^−7M, 72 hr): about 6 fold
- PTEN expression (in words) ([9]; 10^−7 M, 72 hrs): induced PTEN expression

SMILES: COc1cccc(-c2cc(=O)c3ccccc3o2)c1N [PD98059]
- monocytic differentiation (CD14) induced by paricalcitol and by the combination with arsenic trioxide ([7]; PD98059 25 μM, 2 days): blocked
